Active and inactive are the calls of the source. The calls are words filed in the database; no cut-off is given here.
Assays:
[1] = target: T1, Receptor-type tyrosine-protein phosphatase C (Homo sapiens) (UniProt P08575); experiment: Inhibition of recombinant human CD45 (604 to 1304 residues) phosphatase activity expressed in baculovirus infected Sf9 incubated for 20 mins by spectrophotometric analysis
T1 sequence (whole entry): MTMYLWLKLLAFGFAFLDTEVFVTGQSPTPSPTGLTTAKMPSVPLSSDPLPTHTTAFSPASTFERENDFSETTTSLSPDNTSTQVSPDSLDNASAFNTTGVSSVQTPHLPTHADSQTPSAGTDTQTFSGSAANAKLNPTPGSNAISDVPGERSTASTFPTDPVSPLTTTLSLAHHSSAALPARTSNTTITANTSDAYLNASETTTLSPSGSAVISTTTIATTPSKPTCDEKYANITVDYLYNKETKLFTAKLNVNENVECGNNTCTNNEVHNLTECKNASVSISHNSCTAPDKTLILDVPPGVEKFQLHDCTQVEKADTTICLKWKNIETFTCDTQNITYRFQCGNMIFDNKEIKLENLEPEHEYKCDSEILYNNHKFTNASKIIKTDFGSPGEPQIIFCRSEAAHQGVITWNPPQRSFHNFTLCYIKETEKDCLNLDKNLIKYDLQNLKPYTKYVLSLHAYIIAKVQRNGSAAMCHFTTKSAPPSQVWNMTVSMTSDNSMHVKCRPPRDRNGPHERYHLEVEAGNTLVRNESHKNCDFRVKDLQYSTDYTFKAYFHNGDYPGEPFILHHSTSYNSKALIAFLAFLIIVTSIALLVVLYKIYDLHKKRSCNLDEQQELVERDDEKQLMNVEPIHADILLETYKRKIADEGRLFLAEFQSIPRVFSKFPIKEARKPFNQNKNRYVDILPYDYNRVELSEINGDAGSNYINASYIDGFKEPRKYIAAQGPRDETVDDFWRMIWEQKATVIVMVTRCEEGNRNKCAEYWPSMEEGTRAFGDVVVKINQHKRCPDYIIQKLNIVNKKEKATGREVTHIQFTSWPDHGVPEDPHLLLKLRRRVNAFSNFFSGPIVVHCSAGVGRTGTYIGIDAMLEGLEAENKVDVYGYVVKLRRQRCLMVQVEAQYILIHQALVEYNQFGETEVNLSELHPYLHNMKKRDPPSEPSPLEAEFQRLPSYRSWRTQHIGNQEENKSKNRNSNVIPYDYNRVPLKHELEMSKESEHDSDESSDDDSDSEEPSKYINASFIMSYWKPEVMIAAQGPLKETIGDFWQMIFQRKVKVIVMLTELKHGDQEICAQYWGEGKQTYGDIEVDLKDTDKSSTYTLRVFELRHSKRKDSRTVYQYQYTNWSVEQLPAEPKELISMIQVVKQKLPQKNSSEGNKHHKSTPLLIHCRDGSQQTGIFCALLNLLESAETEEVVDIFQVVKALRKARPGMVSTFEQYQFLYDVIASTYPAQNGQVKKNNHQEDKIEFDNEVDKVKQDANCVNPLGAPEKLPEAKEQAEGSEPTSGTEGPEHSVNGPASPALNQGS

[2] = organism: Homo sapiens; experiment: Inhibition of recombinant STS-1 W505L mutant HP domain (unknown origin)
[3] = target: Tyrosine-protein phosphatase non-receptor type 6 (Homo sapiens) (UniProt P29350); experiment: Inhibition of recombinant human SHP1 (243 to 541 residues) phosphatase activity expressed in Escherichia coli incubated for 20 mins by spectrophotometric analysis
[4] = target: T2, Ubiquitin-associated and SH3 domain-containing protein A (Homo sapiens) (UniProt P57075); experiment: Inhibition of human STS-2 HP domain (396 to 657 residues) phosphatase activity expressed in Escherichia coli BL21 (DE3) incubated for 20 mins by spectrophotometric analysis
T2 sequence (whole entry): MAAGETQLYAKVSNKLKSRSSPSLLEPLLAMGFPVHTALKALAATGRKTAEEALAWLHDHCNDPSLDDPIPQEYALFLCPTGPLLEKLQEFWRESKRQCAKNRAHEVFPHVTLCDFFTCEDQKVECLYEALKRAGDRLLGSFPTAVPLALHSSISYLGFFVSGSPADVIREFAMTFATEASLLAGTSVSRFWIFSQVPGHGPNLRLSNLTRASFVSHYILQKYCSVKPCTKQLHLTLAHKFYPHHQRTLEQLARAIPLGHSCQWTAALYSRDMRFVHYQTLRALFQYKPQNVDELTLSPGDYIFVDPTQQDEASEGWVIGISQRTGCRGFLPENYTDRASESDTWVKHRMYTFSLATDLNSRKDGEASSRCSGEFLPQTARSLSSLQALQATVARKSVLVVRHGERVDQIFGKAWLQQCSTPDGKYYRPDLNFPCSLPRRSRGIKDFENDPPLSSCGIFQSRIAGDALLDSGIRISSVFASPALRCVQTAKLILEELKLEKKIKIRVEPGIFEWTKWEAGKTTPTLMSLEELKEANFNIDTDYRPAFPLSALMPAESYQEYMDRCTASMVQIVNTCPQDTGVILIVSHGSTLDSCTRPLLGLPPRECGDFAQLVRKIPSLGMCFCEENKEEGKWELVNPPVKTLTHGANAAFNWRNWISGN

[5] = target: T3, Tyrosine-protein phosphatase non-receptor type 1 (Homo sapiens) (UniProt P18031); experiment: Inhibition of recombinant human PTP-1B (1 to 321 residues) phosphatase activity expressed in Escherichia coli incubated for 20 mins by spectrophotometric analysis
T3 sequence (whole entry): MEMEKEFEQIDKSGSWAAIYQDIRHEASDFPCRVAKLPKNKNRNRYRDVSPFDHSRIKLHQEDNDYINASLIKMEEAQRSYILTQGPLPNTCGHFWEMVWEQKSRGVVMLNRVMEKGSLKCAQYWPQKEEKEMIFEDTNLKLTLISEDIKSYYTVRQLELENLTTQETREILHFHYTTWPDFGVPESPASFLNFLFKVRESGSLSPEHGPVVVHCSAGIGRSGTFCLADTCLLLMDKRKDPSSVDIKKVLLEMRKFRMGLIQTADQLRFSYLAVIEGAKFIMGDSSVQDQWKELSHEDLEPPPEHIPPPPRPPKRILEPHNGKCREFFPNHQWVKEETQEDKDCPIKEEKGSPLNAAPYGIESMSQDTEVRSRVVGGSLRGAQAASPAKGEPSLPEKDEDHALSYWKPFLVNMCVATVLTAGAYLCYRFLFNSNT

Tyrosine-protein phosphatase non-receptor type 6 (Homo sapiens), sequence (P29350 whole entry, the tested form may be a part): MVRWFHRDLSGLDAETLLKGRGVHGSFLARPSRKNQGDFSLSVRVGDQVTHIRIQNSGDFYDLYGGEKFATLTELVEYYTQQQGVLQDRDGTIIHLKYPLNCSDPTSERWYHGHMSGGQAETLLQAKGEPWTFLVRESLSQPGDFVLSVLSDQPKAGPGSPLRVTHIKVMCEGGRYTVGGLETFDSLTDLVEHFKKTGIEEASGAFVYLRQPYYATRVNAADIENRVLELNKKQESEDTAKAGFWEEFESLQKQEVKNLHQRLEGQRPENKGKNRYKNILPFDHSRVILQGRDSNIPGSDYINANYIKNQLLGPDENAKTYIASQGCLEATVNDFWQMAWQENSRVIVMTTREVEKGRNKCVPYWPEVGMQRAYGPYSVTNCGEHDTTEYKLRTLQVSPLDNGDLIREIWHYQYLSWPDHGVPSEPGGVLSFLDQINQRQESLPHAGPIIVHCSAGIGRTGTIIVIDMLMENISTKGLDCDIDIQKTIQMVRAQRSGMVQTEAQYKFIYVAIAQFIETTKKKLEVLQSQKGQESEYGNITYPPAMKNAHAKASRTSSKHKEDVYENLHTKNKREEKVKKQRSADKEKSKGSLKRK

- inhibition [1]: inactive
- inhibition [2]: inactive
- inhibition [3]: inactive
- inhibition [4]: Active
- inhibition [5]: inactive
SMILES: O=C(NC(Cc1cc(=O)[nH]c2ccccc12)C(=O)O)c1ccc(Cl)cc1 (stereo not given)
